In US20250134869A1, “Pyrrolo[2,3-d]pyrimidinyl, Pyrrolo[2,3-b]pyrazinyl and Pyrrolo[2,3-d]pyridinyl Acryla-mides” (Pfizer Inc, priority 2021, published 2025):
Where two headings read alike, the source gives them in different places.

Target: JAK3 enzyme (Homo sapiens (Human), UniProt P52333)
Assay: JAK Caliper Enzyme Assay at 4 μM or 1 mM ATP
Assay type: biochemical
[1] = read-out: JAK3 (4 μM ATP) IC50, 4 μM ATP
[2] = read-out: JAK3 (1 mM ATP) IC50, 1 mM ATP

Chain of JAK3 enzyme (P52333 whole entry, species assumed): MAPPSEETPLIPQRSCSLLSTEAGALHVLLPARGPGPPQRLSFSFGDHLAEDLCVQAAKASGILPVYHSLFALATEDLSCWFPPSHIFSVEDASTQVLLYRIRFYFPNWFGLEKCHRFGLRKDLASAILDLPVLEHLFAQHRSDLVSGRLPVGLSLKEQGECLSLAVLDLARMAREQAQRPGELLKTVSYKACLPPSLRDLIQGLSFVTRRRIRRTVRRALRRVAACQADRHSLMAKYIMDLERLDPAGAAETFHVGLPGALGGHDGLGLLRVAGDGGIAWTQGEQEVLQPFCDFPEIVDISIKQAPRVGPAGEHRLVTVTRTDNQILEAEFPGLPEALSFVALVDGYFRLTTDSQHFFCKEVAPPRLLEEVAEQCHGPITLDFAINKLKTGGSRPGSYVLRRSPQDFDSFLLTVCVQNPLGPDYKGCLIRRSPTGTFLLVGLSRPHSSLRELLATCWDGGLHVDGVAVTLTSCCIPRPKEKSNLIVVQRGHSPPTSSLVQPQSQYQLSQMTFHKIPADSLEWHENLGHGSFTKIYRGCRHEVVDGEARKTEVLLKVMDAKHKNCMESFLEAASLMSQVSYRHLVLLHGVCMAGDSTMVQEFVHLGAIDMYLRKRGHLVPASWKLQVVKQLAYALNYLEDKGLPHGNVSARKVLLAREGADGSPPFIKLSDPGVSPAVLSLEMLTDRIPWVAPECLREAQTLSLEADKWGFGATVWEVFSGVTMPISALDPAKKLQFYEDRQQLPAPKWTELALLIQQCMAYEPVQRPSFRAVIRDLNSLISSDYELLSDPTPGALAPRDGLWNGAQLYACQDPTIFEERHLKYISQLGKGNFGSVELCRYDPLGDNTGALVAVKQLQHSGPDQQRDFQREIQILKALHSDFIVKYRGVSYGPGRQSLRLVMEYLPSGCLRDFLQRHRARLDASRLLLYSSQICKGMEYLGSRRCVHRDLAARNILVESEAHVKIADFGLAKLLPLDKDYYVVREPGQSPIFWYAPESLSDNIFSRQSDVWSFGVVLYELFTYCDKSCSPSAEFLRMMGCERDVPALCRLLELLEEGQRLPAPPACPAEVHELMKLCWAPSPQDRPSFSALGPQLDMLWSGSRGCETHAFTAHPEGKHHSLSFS

| SMILES | IC50 [1] [nM] | IC50 [2] [nM] |
| --- | --- | --- |
| C=CC(=O)N1CCN(c2cnc3[nH]cc(C(=O)NC(C)C)c3n2)C[C@H]1C(C)C [Example 294, 2-[(3R)-4-acryloyl-3-(propan-2-yl)piperazin-1-yl]-N-(propan-2-yl)-5H-pyrrolo[2,3-b]pyrazine-7-carboxamide] | 1.9 | 235 |
| C=CC(=O)N1CCN(c2cnc3[nH]cc(C(=O)NC(C)C)c3n2)[C@@H](C)C1 [Example 297, 2-[(2S)-4-acryloyl-2-methylpiperazin-1-yl]-N-(propan-2-yl)-5H-pyrrolo[2,3-b]pyrazine-7-carboxamide] | 1.5 | 181 |
| C=CC(=O)N1CCN(c2cnc3[nH]cc(C(=O)NC(C)C)c3n2)C[C@@H]1CC [Example 299, 2-[(3S)-4-acryloyl-3-ethylpiperazin-1-yl]-N-(propan-2-yl)-5H-pyrrolo[2,3-b]pyrazine-7-carboxamide] | 0.7 | 55.6 |
| C=CC(=O)N1[C@@H]2CC[C@H]1CN(c1cnc3[nH]cc(C(=O)NC(C)C)c3n1)C2 [Example 301, 2-[(1R,5S)-8-acryloyl-3,8-diazabicyclo[3.2.1]oct-3-yl]-N-(propan-2-yl)-5H-pyrrolo[2,3-b]pyrazine-7-carboxamide] | 0.6 | 89 |
| C=CC(=O)N1CC[C@@H](Nc2cnc3[nH]cc(C(=O)NC(C)C)c3n2)[C@@H](OC)C1 [Example 302, 2-{[(3S,4R)-1-acryloyl-3-methoxypiperidin-4-yl]amino}-N-(propan-2-yl)-5H-pyrrolo[2,3-b]pyrazine-7-carboxamide] | 1.2 | 49.4 |
| C=CC(=O)N1CC[C@@H](Nc2cnc3[nH]cc(C(=O)NC(C)C)c3n2)[C@H](OC)C1 [Example 305, 2-{[(3R,4R)-1-acryloyl-3-methoxypiperidin-4-yl]amino}-N-(propan-2-yl)-5H-pyrrolo[2,3-b]pyrazine-7-carboxamide] | 0.8 | 65 |
| C=CC(=O)N1CCN(c2cnc3[nH]cc(C(=O)NC(C)C)c3n2)[C@H](C)C1 [Example 307, 2-[(2R)-4-acryloyl-2-methylpiperazin-1-yl]-N-(propan-2-yl)-5H-pyrrolo[2,3-b]pyrazine-7-carboxamide] | 1.1 | 128 |
| C=CC(=O)N1CCN(c2cnc3[nH]cc(C(=O)NC(C)C)c3n2)[C@H](C2CC2)C1 [Example 309, 2-[(2R)-4-acryloyl-2-cyclopropylpiperazin-1-yl]-N-(propan-2-yl)-5H-pyrrolo[2,3-b]pyrazine-7-carboxamide] | 6.6 | 814 |
| C=CC(=O)N1CCN(c2cnc3[nH]cc(C(=O)NC(C)C)c3n2)C(C)(C)C1 [Example 312, 2-(4-acryloyl-2,2-dimethylpiperazin-1-yl)-N-(propan-2-yl)-5H-pyrrolo[2,3-b]pyrazine-7-carboxamide] | 4.5 | 592 |
| C=CC(=O)N1CCN(c2cnc3[nH]cc(C(=O)NC(C)C)c3n2)C2(CC2)C1 [Example 313, 2-(7-acryloyl-4,7-diazaspiro[2.5]oct-4-yl)-N-(propan-2-yl)-5H-pyrrolo[2,3-b]pyrazine-7-carboxamide] | 1.4 | 183 |
| C=CC(=O)N1CCN(c2cnc3[nH]cc(C(=O)NC(C)C)c3n2)[C@@H](C2CC2)C1 [Example 314, 2-[(2S)-4-acryloyl-2-cyclopropylpiperazin-1-yl]-N-(propan-2-yl)-5H-pyrrolo[2,3-b]pyrazine-7-carboxamide] | 5 | 662 |
| C=CC(=O)N1CC[C@@H](Nc2cnc3[nH]cc(C(=O)NC(C)C)c3n2)[C@@H](F)C1 [Example 320, 2-{[(3S,4R)-1-acryloyl-3-fluoropiperidin-4-yl]amino}-N-(propan-2-yl)-5H-pyrrolo[2,3-b]pyrazine-7-carboxamide] | 0.4 | 10.7 |
| C=CC(=O)N1CCN(c2cnc3[nH]cc(C(=O)NC(C)C)c3n2)[C@H](CC)C1 [Example 321, 2-[(2R)-4-acryloyl-2-ethylpiperazin-1-yl]-N-(propan-2-yl)-5H-pyrrolo[2,3-b]pyrazine-7-carboxamide] | 0.9 | 144 |
| C=CC(=O)N1CC2(C1)CN(c1cnc3[nH]cc(C(=O)NC(C)C)c3n1)C2C (stereo not shown) [Example 322, 2-(6-acryloyl-1-methyl-2,6-diazaspiro[3.3]hept-2-yl)-N-(propan-2-yl)-5H-pyrrolo[2,3-b]pyrazine-7-carboxamide] | 29.4 | 3440 |
| C=CC(=O)N1CC2COCC(C1)N2c1cnc2[nH]cc(C(=O)NC(C)C)c2n1 [Example 324, 2-(7-acryloyl-3-oxa-7,9-diazabicyclo[3.3.1]non-9-yl)-N-(propan-2-yl)-5H-pyrrolo[2,3-b]pyrazine-7-carboxamide] | 37.5 | 3100 |

More lines, in order of falling IC50 [1], values ahead:

| IC50 [1] [nM] | IC50 [2] [nM] | SMILES |
| --- | --- | --- |
| 117 | > 10000 | C=CC(=O)N1CC2(C1)CN(c1cnc3[nH]cc(C(=O)NC(C)C)c3n1)C2 [Example 310, 2-(6-acryloyl-2,6-diazaspiro[3.3]hept-2-yl)-N-(propan-2-yl)-5H-pyrrolo[2,3-b]pyrazine-7-carboxamide] |
| 11.9 | 886 | C=CC(=O)N1CCN(c2cnc3[nH]cc(C(=O)NC(C)C)c3n2)[C@@H](C(C)C)C1 [Example 323, 2-[(2S)-4-acryloyl-2-(propan-2-yl)piperazin-1-yl]-N-(propan-2-yl)-5H-pyrrolo[2,3-b]pyrazine-7-carboxamide] |
| 5 | 480 | C=CC(=O)N1CCN(c2cnc3[nH]cc(C(=O)NC(C)C)c3n2)[C@@H](CC)C1 [Example 325, 2-[(2S)-4-acryloyl-2-ethylpiperazin-1-yl]-N-(propan-2-yl)-5H-pyrrolo[2,3-b]pyrazine-7-carboxamide] |
| 3.9 | 326 | C=CC(=O)N1[C@H](C)CN(c2cnc3[nH]cc(C(=O)NC(C)C)c3n2)C[C@@H]1C [Example 306, 2-[(3R,5S)-4-acryloyl-3,5-dimethylpiperazin-1-yl]-N-(propan-2-yl)-5H-pyrrolo[2,3-b]pyrazine-7-carboxamide] |
| 1.2 | 200 | C=CC(=O)N1CCN(c2cnc3[nH]cc(C(=O)NC(C)C)c3n2)C[C@H]1CC [Example 311, 2-[(3R)-4-acryloyl-3-ethylpiperazin-1-yl]-N-(propan-2-yl)-5H-pyrrolo[2,3-b]pyrazine-7-carboxamide] |
| 1.1 | 89.8 | C=CC(=O)N1CCN(c2cnc3[nH]cc(C(=O)NC(C)C)c3n2)C[C@@H]1C [Example 295, 2-[(3S)-4-acryloyl-3-methylpiperazin-1-yl]-N-(propan-2-yl)-5H-pyrrolo[2,3-b]pyrazine-7-carboxamide] |
| 0.5 | 44.6 | C=CC(=O)N1CC[C@H](Nc2cnc3[nH]cc(C(=O)NC(C)C)c3n2)[C@H](OC)C1 [Example 317, 2-{[(3R,4S)-1-acryloyl-3-methoxypiperidin-4-yl]amino}-N-(propan-2-yl)-5H-pyrrolo[2,3-b]pyrazine-7-carboxamide] |
| 0.3 | 21.3 | C=CC(=O)N1CCC(C)(Nc2cnc3[nH]cc(C(=O)NC(C)C)c3n2)CC1 [Example 318, 2-[(1-acryloyl-4-methylpiperidin-4-yl)amino]-N-(propan-2-yl)-5H-pyrrolo[2,3-b]pyrazine-7-carboxamide] |
